Laboratory results published in patent US6726894B1, “Transport vehicles for macromolecules” (priority 1995, dated 2004).

Experiments:
COS-7 cells [1] = test: Toxicity study, residual protein content of COS-7 cells
COS-7 cells [2] = test: Transfection of COS-7 cells (CAT-assay); format: cell-based

CCCCCCCCC=CCCCCCCCCC(CCCCCCCCC=CCCCCCCCC)c1cc[n+](C)cc1.[Cl-] (stereo not drawn) [SAINT-2, 1-Methyl-4-(19-cis,cis-heptatritiaconta-9,28-dienyl)pyridinium Chloride]
lipid concentration from which decrease of protein content was observed (COS-7 cells [1]): 90 µM | toxicity compared with DOTMA-DOPE (COS-7 cells [1]): clearly less toxic | residual protein content after decrease (COS-7 cells [1]; decrease from 2 mg/ml): 1.75 mg/mL | transfection efficiency with respect to DOTMA/DOPE vesicles (COS-7 cells [2]; COS-7 cells, FIG. 1): eight | transfection efficiency with respect to Lipofectine (COS-7 cells [2]; dependent on the cell type): at least eight
